From PMC6271273, “Chemo-Enzymatic Synthesis of Silybin and 2,3-Dehydrosilybin Dimers” (Molecules, 2014) come the findings set out here.

The structures appear in SMILES notation. Where “and” joins values, the source holds several entries; their conditions need not be identical. Equal values may be shown once. Marks after values point to notes of the source that are not given here.

For data set [1], the system named is mouse fibroblasts (BALB/c 3T3). The data set is described as follows: Cytotoxicity, MTT test, BALB/c 3T3. Type of data set: cell-based. Conditions: BALB/c3T3, 24 h incubation, read-out: IC50 viability (MTT-reducing ability) BALB/c 3T3. The method, then: (§1) All the cells were cultured in a humidified atmosphere with 5% (v/v) CO2 at 37 °C and subcultured before conﬂuence. Human Umbilical Vein Endothelial Cells (HUVEC) were isolated from umbilical cords of healthy non-smoker women (18–35 years) as described previously, cultivated in gelatin-coated flasks in EGM and used in passages 2–6. Primary Normal human Adult epidermal Keratinocytes (NAK) were isolated from normal skin obtained from excessive tissue removed during abdominoplasty or mammoplasty of healthy adult patients as described in [36, 50], cultivated in EpiLife medium with the addition of HKGS. Mouse fibroblasts (BALB/c 3T3 cells) were purchased from the European Collection of Cell Cultures (ECACC, Salisbury, UK) and were grown in DMEM supplemented with heat-inactivated FCS (5%, v/v) and newborn FCS, streptomycin […] and glutamine (4 mM). Hepatocyte carcinoma HepG2 cells (No. 85011430, ECACC) were cultured at 37 °C in DMEM supplemented with 2 mM L-glutamine, 1% non-essential amino acids, 100 U/mL penicillin, […] and 10% fetal bovine serum (Invitrogen, Carlsbad, CA, USA).
(§2) The cells were plated into 96-well cell culture plates and grown to near confluence. The tested compounds were placed in the respective fresh medium in serial dilutions (100 µL/well) and incubated with the cells for 24 h. After incubation, the medium was removed, the cells were washed with PBS, fresh medium containing 1 mg/mL of MTT was added and the plates were incubated for a further 3 h (37 °C). The resulting formazan was dissolved in 50 µL of 1% NH3 in DMSO, absorbance was read at 540 nm and IC50 values were obtained graphically from the dependence of cell viability on the concentration of the tested compound.
In general terms: Tetrazolium dyes change colour on reduction, which living cells bring about.

A short description of data set [2]: DPPH radical scavenging assay. It is filed as biochemical. Conditions: for IC50: 20 µM DPPH, 30 min; for DPPH [% of inhibition]: 33 µM test compound, n = 4, absorbance at 517 nm after 30 min. As to the method: Antiradical activity was evaluated spectrophotometrically as the ability of the tested substances to reduce the 1,1-diphenyl-2-picrylhydrazyl (DPPH) radical as described previously with minor modifications. Briefly, a solution of the tested substance (10 µL, final concentration 0–540 µM) were mixed with a freshly prepared methanolic DPPH solution (290 µL, final concentration 20 µM) in a microtiter plate well. After 30 min, absorbance at 517 nm was measured, percentages of inhibition were calculated using the negative control and for selected compounds the IC50 values were obtained from the inhibition curves.
For orientation: Loss of DPPH colour is used to gauge radical scavenging.

Another data set relates to HepG2 cells. The data set is described as follows: Cytotoxicity, MTT test, HepG2. It is filed as cell-based. Conditions: Homo sapiens, 24 h incubation, read-out: IC50 viability (MTT-reducing ability) HepG2. As to the method:
as §1, §2

Data set [3] deals with normal human adult epidermal keratinocytes (NAK). The data set is described as follows: Cytotoxicity, MTT test, NAK. It is filed as cell-based. Conditions: Keratinocyte, 24 h incubation, read-out: IC50 viability (MTT-reducing ability) NAK. As to the method: as §1, §2
For a further data set, the system named is rat liver microsomes. The data set is described as follows: Inhibition of microsomal lipid peroxidation induced by tert-butyl hydroperoxide (TBARS). Type of data set: biochemical. Conditions: for IC50: rat liver microsomes, 1 mM tert-butyl hydroperoxide, TBARS. As to the method:
Microsomes were prepared from rat liver homogenate as described previously and resuspended in 50 mM Tris-HCl buffer with 100 mM KCl and 0.1 mM EDTA (pH 7.4). The protein concentration in the stock microsomal suspension was determined using the Bradford method to be typically ca 30 mg protein/mL. This stock suspension was stored at −80 °C and diluted to 0.625 mg protein/mL using PBS before use. 0.4 mL of the diluted microsomal suspension was then mixed with the compounds tested (final concentration 10–200 µM in 0.01 mL DMSO) and incubated for 10 min at 37 °C. tert-Butyl hydroperoxide (0.09 mL in PBS; final concentration 1 mM) was then added and the mixture was incubated at 37 °C for 30 min. The products of lipid peroxidation were determined as thiobarbituric acid reactive substances (TBARS): 0.7 mL of […] were added, the mixture was heated (90 °C; 30 min), cooled, centrifuged (10 min; 10,000 rpm; 4 °C) and the absorbance of the supernatant at 535 nm measured. The activity was calculated as the concentration of the tested compound that inhibited the color reaction with thiobarbiturate (without the tested compound) by 50% (IC50).
(In general: Microsomes from liver hold many membrane-bound enzymes, among them those of drug oxidation.)

Data set [4] concerns human umbilical vein endothelial cells (HUVEC). The data set is described as follows: Cytotoxicity, MTT test, HUVEC. Type of data set: cell-based. Conditions: 24 h incubation, read-out: IC50 viability (MTT-reducing ability) HUVEC. The method, then: as §1, §2
Data set [5] can be described thus: Cytotoxicity, MTT test, range over all cells other than NAK. Type of data set: cell-based. The conditions noted are these: human (HUVEC, HepG2) and mouse (BALB/c 3T3), all cells used other than NAK (HUVEC, BALB/c 3T3, HepG2), read-out: Cytotoxicity IC50, range over cell types. As to the method: as §1, §2
Data set [6] can be described thus: Square wave voltammetry (in situ / ex situ) at pyrolytic graphite electrode. The conditions noted are these: for Oxidation potential Ep1 / Oxidation potential Ep2: SWV, vs. Ag/AgCl/3 M KCl, pH 7.4, n = 3; for Oxidation potential Ep1: ascribed to oxidation of C-20 OH; for Oxidation potential Ep2: oxidation of resorcinol moiety (ring A). It is filed as physicochemical. The method, then:
The monomeric flavonolignans and their dimers were analyzed using in situ voltammetry with the working electrode (PGE: pyrolytic graphite electrode) dipped in the supporting electrolyte containing the analytes and/or ex situ voltammetric analysis (adsorptive transfer, AdT technique). For this purpose, the PGE was first dipped into a 5 µL aliquot of the studied sample. After an accumulation period (30 s), the electrode was washed with deionized water and placed in an electrochemical cell containing pure supporting electrolyte. Square-wave voltammetry (SWV) and cyclic voltammetry (CV) were performed at room temperature with a µAutolab III analyzer (EcoChemie, Utrecht, The Netherlands) in a three-electrode setup (Ag/AgCl 3M KCl electrode as a reference and a platinum wire as the auxiliary electrode). SWV parameters: frequency: 200 Hz, from 0 V to +1.5 V, concentration of tested compounds (50 µM), supporting electrolyte: Britton-Robinson buffer, pH 7.4. The flavonolignans analyzed were dissolved in methanol as a stock solution of 1 mg mL^−1 (stored in a fridge in the dark), and diluted with the supporting electrolyte and/or 0.2 M acetate buffer (pH 5) for in situ and/or ex situ voltammetry. Ex situ a.c. voltammetry (out-of-phase) was carried out with a hanging mercury drop electrode (HMDE) according to the previously published paper. In this case, the flavonolignans (50 µM) were adsorbed from 0.2 M acetate buffer (pH 5) for 30 s. For current responses and potentials (Ep), the standard deviations (S.D.) were less than ±3.55% and ±3 mV for all experiments, respectively.

In the case of `COc1cc([C@H]2Oc3cc([C@H]4Oc5cc(O)cc(O)c5C(=O)[C@@H]4O)ccc3O[C@@H]2CO)ccc1O` [Compound 1a, silybin A], the IC50 was 131 ± 8 µM in data set [1]; 225 ± 9.4 µM in data set [2]; 165 ± 8.1 µM with HepG2 cells; greater than 200 µM in data set [3]; 53.7 ± 6.1 µM in the data set on rat liver microsomes; 57.8 ± 3.6 µM in data set [4]. The “DPPH [% of inhibition]” value in data set [2] is recorded as 6.6 ± 1.7 ^a %. For the same compound, in data set [5], the IC50 at 24 h was in the range of 60 to 166 µM.

In the case of `COc1cc([C@H]2Oc3cc([C@H]4Oc5cc(O)cc(O)c5C(=O)[C@@H]4O)ccc3O[C@@H]2COC(=O)CCCCCCCCCCC(=O)OC[C@H]2Oc3ccc([C@H]4Oc5cc(O)cc(O)c5C(=O)[C@@H]4O)cc3O[C@@H]2c2ccc(O)c(OC)c2)ccc1O` [Compound 3, bis(((2R,3R)-3-(4-Hydroxy-3-methoxyphenyl)-6-((2R,3R)-3,5,7-trihydroxy-4-oxochroman-2-yl)-2,3-dihydrobenzo[b][1,4]dioxin-2-yl)methyl) dodecanedioate], the IC50 in data set [1] is 23.5 ± 5.6 µM; in data set [2], 137 ± 7.5 µM; in the data set on HepG2 cells, 51.8 ± 5.9 µM; in data set [3], greater than 200 µM; in the data set with rat liver microsomes it was 34 ± 4.3 µM; in data set [4], 7.6 ± 1.9 µM. The “DPPH [% of inhibition]” value in data set [2] is 7.1 ± 2.8 ^a %. The “Activity relative to the parent molecule 1a, microsomal lipid peroxidation” value with rat liver microsomes (stated jointly for DPPH scavenging and microsomal lipid peroxidation tests) is given as “approximately 1.6 times”. Besides, the “Oxidation potential Ep1” value in data set [6] was 0.56 V. Also, the “Oxidation potential Ep2” value in data set [6] worked out at 0.83 V. Moreover, the “Adsorption onto the electrode” value in data set [6] (ex situ (adsorptive transfer) SWV, open circuit potential) is “strictly limited and practically impossible”. Further, in data set [5], the IC50 at 24 h lay in the range of 8 to 44 µM.

Turning to `COc1cc(C2Oc3cc(-c4oc5cc(O)cc(O)c5c(=O)c4O)ccc3OC2CO)ccc1O` (stereo not drawn) [Compound 6, 2,3-Dehydrosilybin], the IC50 was 11.9 ± 3 µM in data set [1]; 6.43 ± 0.3 µM in data set [2]; 58.4 ± 9 µM with HepG2 cells; greater than 200 µM in data set [3]; 14.5 ± 0.73 µM with rat liver microsomes; 20.9 ± 4.6 µM in data set [4]. Besides, the “DPPH [% of inhibition]” value in data set [2] (33 µM) was 83% and 82.9 ± 0.2 ^b %. In addition, the “Oxidation potential Ep1” value in data set [6] came to 0.54 V. The “Oxidation potential Ep2” value in data set [6] is listed as 0.92 V. The IC50 at 24 h in data set [5] lay in the range of 12 to 59 µM.

Regarding `COc1cc([C@H]2Oc3cc([C@H]4Oc5cc(OCc6ccc(COc7cc(O)c8c(c7)O[C@H](c7ccc9c(c7)O[C@H](c7ccc(O)c(OC)c7)[C@@H](CO)O9)[C@@H](O)C8=O)cc6)cc(O)c5C(=O)[C@@H]4O)ccc3O[C@@H]2CO)ccc1O` [Compound 8, (2R,2'R,3R,3'R)-7,7'-((1,4-Phenylenebis(methylene))bis(oxy))bis(3,5-dihydroxy-2-((2R,3R)-3-(4-hydroxy-3-methoxyphenyl)-2-(hydroxymethyl)-2,3-dihydrobenzo[b][1,4]dioxin-6-yl)chroman-4-one)], the “DPPH [% of inhibition]” value in data set [2] is listed as 8.5 ± 3.7 ^a %. Moreover, in data set [6], the “Oxidation potential Ep1” value worked out at 0.56 V and the “Oxidation potential Ep2” value was determined as 0.81 V.

For `COc1cc([C@@H]2Oc3cc([C@H]4Oc5cc(OCc6ccc(COc7cc(O)c8c(c7)O[C@H](c7ccc9c(c7)O[C@@H](c7ccc(O)c(OC)c7)[C@H](CO)O9)[C@@H](O)C8=O)cc6)cc(O)c5C(=O)[C@@H]4O)ccc3O[C@H]2CO)ccc1O` [Compound 9, (2R,2'R,3R,3'R)-7,7'-((1,4-Phenylenebis(methylene))bis(oxy))bis(3,5-dihydroxy-2-((2S,3S)-3-(4-hydroxy-3-methoxyphenyl)-2-(hydroxymethyl)-2,3-dihydrobenzo[b][1,4]dioxin-6-yl)chroman-4-one)], the “DPPH [% of inhibition]” value in data set [2] was 8.9 ± 4.0 ^a %. In data set [6], the “Oxidation potential Ep1” value is reported as 0.57 V and the “Oxidation potential Ep2” value was determined as 0.83 V.

Take `COc1cc(C2Oc3cc([C@H]4Oc5cc(OCc6ccc(COc7cc(O)c8c(c7)O[C@H](c7ccc9c(c7)OC(c7ccc(O)c(OC)c7)C(CO)O9)[C@@H](O)C8=O)cc6)cc(O)c5C(=O)[C@@H]4O)ccc3OC2CO)ccc1O` (stereo partly drawn) [Compound 10, (2R,2'R,3R,3'R)-7,7'-((1,4-Phenylenebis(methylene))bis(oxy))bis(3,5-dihydroxy-2-(3-(4-hydroxy-3-methoxyphenyl)-2-(hydroxymethyl)-2,3-dihydrobenzo[b][1,4]dioxin-6-yl)chroman-4-one)]: the “DPPH [% of inhibition]” value in data set [2] is on record as 8.1 ± 3.4 ^a %. In addition, in data set [6], the “Oxidation potential Ep1” value was determined as 0.56 V and the “Oxidation potential Ep2” value was found to be 0.80 V.

For the compound `COc1cc(C2Oc3cc([C@H]4Oc5cc(OCc6cccc(COc7cc(O)c8c(c7)O[C@H](c7ccc9c(c7)OC(c7ccc(O)c(OC)c7)C(CO)O9)[C@@H](O)C8=O)c6)cc(O)c5C(=O)[C@@H]4O)ccc3OC2CO)ccc1O` (stereo partly drawn) [Compound 11, (2R,2'R,3R,3'R)-7,7'-((1,3-Phenylenebis(methylene))bis(oxy))bis(3,5-dihydroxy-2-(3-(4-hydroxy-3-methoxyphenyl)-2-(hydroxymethyl)-2,3-dihydrobenzo[b][1,4]dioxin-6-yl)chroman-4-one)], the “DPPH [% of inhibition]” value in data set [2] is 10.7 ± 3.1 ^a %. Further, in data set [6], the “Oxidation potential Ep1” value is given as 0.52 V and the “Oxidation potential Ep2” value was determined as 0.87 V.
